Laboratory results as given in article PMC5109658, “Antibacterial and cytotoxic cytochalasins from the endophytic fungus Phomopsis sp. harbored in Garcinia kola (Heckel) nut” (BMC Complementary and Alternative Medicine, 2016).
≈ marks a conversion by molar mass, not a printed value. Read-outs that look alike come from different tables or passages of the source.

Key:
[1] = tested on: S. aureus ATCC 25923; test: Broth microdilution MIC/MBC; format: cell-based, Staphylococcus aureus; conditions: for MBC/MIC / MBC / MIC: S. aureus ATCC 25923; for MBC / MIC: Staphylococcus aureus, ATCC25923; for MBC: 99.9% reduction in CFU after 24 h; for MIC: 24 h at 37 °C
Experimental: (§1) A total of six bacterial strains were tested for their susceptibility to compounds and these strains were taken from our laboratory collection (kindly provided by Dr. T. Ramamurthy, NICED, Kolkata). Among the clinical strains of Vibrio cholerae used in this study, strains NB2 and SG24 and CO6 belonged to O1 and O139 serotypes, respectively. […]. The other strains used in this study were V. cholerae non-O1, non-O139 (strain PC2); […]. The American Type Culture Collection (ATCC) strain, Staphylococcus aureus ATCC 25923, was used for quality control. The bacterial strains were maintained on agar slant at 4 °C and subcultured on a fresh appropriate agar plates 24 h prior to any antibacterial test. The Mueller Hinton Agar (MHA) was used for the activation of bacteria. The Mueller Hinton Broth (MHB) and nutrient agar (Hi-Media) were used for the MIC and MBC determinations respectively.
(§2) Suspensions of bacteria were prepared in MHB from cells arrested during their logarithmic phase growth (4 h) on MHB at 37 °C. The turbidity of the microbial suspension was read spectrophotometrically at 600 nm and adjusted to an OD of 0.1 with MHB, which is equivalent to 1 × 10^8 CFU/mL. From this prepared solution, other dilutions were made with MHB to yield 1x10^6 CFU/mL.
(§3) MIC and MBC of compounds 1–3 were assessed using the broth microdilution method recommended by the National Committee for Clinical Laboratory Standards with slight modifications. Each test sample was dissolved in dimethylsulfoxide (DMSO) to give a stock solution. The 96-well round bottom sterile plates were prepared by dispensing 180 μL of the inoculated broth (1x10^6 CFU/mL) into each well. A 20 μL aliquot of the stock solution of compound was added. The concentrations of sample tested were 0.125, 0.25, 0.50, 1, 2, 4, 8, 16, 32, 64, 128, 256 and 512 μg/mL. […] Dilutions of tetracycline and ampicillin served as positive controls, while broth with 20 μL of DMSO was used as negative control. The ATCC strain Staphylococcus aureus ATCC 25923 was included for quality assurance purposes. Plates were covered and incubated for 24 h at 37 °C. After incubation, minimum inhibitory concentrations (MIC) were read visually; all wells were plated to nutrient agar (Hi-Media) and incubated. The minimal bactericidal concentration (MBC) was defined as a 99.9% reduction in CFU from the starting inoculums after 24 h incubation interval.

[2] = tested on: S. flexneri SDINT; test: Broth microdilution MIC/MBC; format: cell-based, Shigella flexneri; conditions: for MIC / MBC / MBC/MIC: S. flexneri SDINT; for MIC: 24 h at 37 °C; for MBC: 99.9% reduction in CFU after 24 h
Experimental: as §1, §2, §3

[3] = tested on: V. cholerae PC2; test: Broth microdilution MIC/MBC; format: cell-based, Vibrio cholerae; conditions: V. cholerae PC2; for MIC: 24 h at 37 °C; for MBC: 99.9% reduction in CFU after 24 h
Experimental: as §1, §2, §3

[4] = tested on: V. cholerae SG24; test: Broth microdilution MIC/MBC; format: cell-based, Vibrio cholerae; conditions: for MBC / MIC: Vibrio cholerae; for MBC: 99.9% reduction in CFU after 24 h; for MIC: 24 h at 37 °C
Experimental: as §1, §2, §3

[5] = tested on: V. cholerae NB2; test: Broth microdilution MIC/MBC; format: cell-based, Vibrio cholerae; conditions: for MIC / MBC / MBC/MIC: V. cholerae NB2; for MIC: 24 h at 37 °C; for MBC: 99.9% reduction in CFU after 24 h
Experimental: as §1, §2, §3

[6] = tested on: V. cholerae CO6; test: Broth microdilution MIC/MBC; format: cell-based, Vibrio cholerae; conditions: for MBC/MIC / MBC / MIC: V. cholerae CO6; for MBC / MIC: Vibrio cholerae; for MBC: 99.9% reduction in CFU after 24 h; for MIC: 24 h at 37 °C
Experimental: as §1, §2, §3

[7] = tested on: HeLa cells; test: MTT cytotoxicity assay; format: cell-based, Human; conditions: SI = LC50 on Vero cells / LC50 on HeLa cells
Experimental: (§4) HeLa (Human cervical cancer cell line, ATCC No. CCL-2) and Vero cells (African green monkey kidney cells, normal non-cancer cells, ATCC No. CCL-81), obtained from the American Type Culture Collection (ATCC) were used in this study. Cytotoxic activity was determined using the 3-(4,5-dimethylthiazol-2-yl)-2,5-diphenyltetrazolium bromide (MTT, Sigma, USA) assay reported by Mosmann for the HeLa and Vero cells. This cell viability assay is based on living cell‘s property to transform the MTT dye tetrazolium ring into a purple-colored formazan structure due to the action of mitochondrial and other dehydrogenases inside the cell. The color intensity yielded by the cell population is directly proportional to the number of viable cells, and one can quantify the absorbance measurements using mathematical parameters. Each test sample was dissolved in dimethylsulfoxide (DMSO) to give a stock solution. Compounds 1–3 were prepared from the stock solutions by serial dilution in RPMI 1640 to give a volume of 100 μL in each well of a microtiter plate (96-well). Each well was filled with 100 μL of cells at 2 × 10^5 cells/mL. The assay for each concentration of compound was performed in triplicates and the culture plates were kept at 37 °C with 5% (v/v) CO2 for 24 h. After removing the supernatant of each well and washing twice by PBS, 20 μL of MTT solution (5 mg/mL in PBS) and 100 μL of medium were then introduced. After 4 h of incubation, 100 μL of DMSO were added to each well to dissolve the formazan crystals and the absorbance values at 490 nm were measured with a microplate reader (Bio-RAD 680, USA). The relative cell viability (%) was expressed as a relative percentage of treated cells to the untreated control cells (TC/UC × 100). The rate of cell inhibition was calculated using the following formula: inhibition rate = [1- (ODtest/ODnegative control)] × 100%. The LC50 values were calculated as the concentration of test sample resulting in a 50% reduction of absorbance compared to untreated cells. Cells treated with 5-fluorouridine + RPMI 1640 served as positive control while cells left untreated + 1% (v/v) DMSO + RPMI 1640 were used as negative control.

[8] = MTT cytotoxicity assay; format: cell-based, Human; conditions: human, HeLa cells; MTT, 24 h, mean ± SD; read-out: Cytotoxicty (LC50) HeLa cells
Experimental: as §4

[9] = tested on: studied microorganisms (six bacterial strains); test: Antibacterial spectrum over the six tested strains (broth microdilution); format: cell-based; conditions: out of 6 strains; concentrations up to 512 μg/mL
Experimental: as §1, §3

[10] = MTT cytotoxicity assay; format: cell-based; conditions: African green monkey, Vero cells, normal non-cancer cells, mean ± SD, read-out: Cytotoxicty (LC50) Vero cells
Experimental: as §4

[11] = Hemolytic assay; format: cell-based; conditions: male, 1% human red blood cell suspension, 512 μg/mL (highest concentration tested), 1% human red blood cells, PBS pH 7.4, 37 °C
Experimental: Whole blood (10 mL) from a healthy person was collected into a conical tube containing heparin as an anticoagulant. Erythrocytes were harvested by centrifugation at room temperature for 10 min at 1,000 × g and were washed three times in PBS solution. The top layer (plasma) and the next, milky layer (buffy coat with a layer of platelets on top of it) were then carefully aspirated and discarded. The cell pellet was resuspended in 10 mL of PBS solution and mixed by gentle aspiration with a Pasteur pipette. This cell suspension was used immediately.
For the normal human red blood cells, which were in suspension, the cytotoxicity was evaluated as previously described. Compounds 1–3, at concentrations ranging from 32 to 512 μg/mL, were incubated with an equal volume of 1% human red blood cells in phosphate buffered saline (10 mM PBS, pH 7.4) at 37 °C for 1 h. Tetracycline was tested simultaneously. Non-hemolytic and 100% hemolytic controls were the buffer alone and the buffer containing 1% Triton X-100, respectively. Cell lysis was monitored by measuring the release of hemoglobin at 595 nm with a spectrophotometer (Thermo Scientific, USA). Percent hemolysis was calculated as follows: [(A595 of sample treated with compound - A595 of sample treated with buffer)/(A595 of sample treated with Triton X-100 – A595 of sample treated with buffer)] x 100.

[12] = Shigella flexneri, read-out: MIC

| SMILES | MBC/MIC [1] | MBC [1] [µg/mL] | MIC [1] [µg/mL] | MBC ([2]; Shigella flexneri) [µg/mL] | MIC [2, 12] [µg/mL] | MBC ([3]; Vibrio cholerae) [µg/mL] | MIC ([3]; Vibrio cholerae, read-out: MIC) [µg/mL] | MBC/MIC [4] | MBC [4] [µg/mL] | MIC [4] [µg/mL] | MBC ([5]; Vibrio cholerae) [µg/mL] | MIC ([5]; Vibrio cholerae, read-out: MIC) [µg/mL] | MBC/MIC [6] | MBC [6] [µg/mL] | MIC [6] [µg/mL] | Selectivity Index HeLa cells [7] | CC50 at 24 h [8] [µg/mL] | MBC/MIC [2] | MBC/MIC [5] | CC50 at 24 h [10] [µg/mL] | other results |
| --- | --- | --- | --- | --- | --- | --- | --- | --- | --- | --- | --- | --- | --- | --- | --- | --- | --- | --- | --- | --- | --- |
| CC1(C)S[C@@H]2[C@H](NC(=O)[C@H](N)c3ccccc3)C(=O)N2[C@H]1C(=O)O [Ampicillin, reference compound] | 1 | 16 (≈ 45.8 µM) | 16 (≈ 45.8 µM) | > 512 | > 512 | > 512 | > 512 | 1 | 16 (≈ 45.8 µM) | 16 (≈ 45.8 µM) | > 512 | > 512 | 1 | 16 (≈ 45.8 µM) | 16 (≈ 45.8 µM) | – | – | – | – | – | MIC [2]: >512 µg/mL; MIC [3]: >512 µg/mL; MIC [5]: >512 µg/mL |
| C=C1[C@@H](C)C2[C@H](Cc3ccccc3)NC(=O)[C@]23[C@H](O)/C=C/[C@](C)(OC)C[C@@H](C)C/C=C/[C@@H]3[C@@H]1O (some centres unmarked) [Compound 1, 18-metoxycytochalasin J] | 1 | 128 (≈ 275 µM) | 128 (≈ 275 µM) | 128 (≈ 275 µM) | 128 (≈ 275 µM) | > 512 | > 512 | – | > 512 | > 512 | 512 (≈ 1100 µM) | 512 (≈ 1100 µM) | 1 | 512 (≈ 1100 µM) | 512 (≈ 1100 µM) | 11.37 | 8.18 ± 0.92 (≈ 17.6 µM) | 1 | 1 | 93 ± 2.54 (≈ 200 µM) | Selectivity Index S. aureus ATCC 25923 ([1]; SI = LC50 on Vero cells / MIC): 0.72; Selectivity Index S. flexneri SDINT ([2]; SI = LC50 on Vero cells / MIC): 0.72; share of the studied microorganisms on which inhibitory effects were noted [9]: 66.66%; Selectivity Index V. cholerae NB2 ([5]; SI = LC50 on Vero cells / MIC): 0.18; Selectivity Index V. cholerae CO6 ([6]; SI = LC50 on Vero cells / MIC): 0.18; hemolysis at 1 h, 512 μg/mL [11]: < 10% |
| O=c1[nH]c(=O)n([C@@H]2O[C@H](CO)[C@@H](O)[C@H]2O)cc1F [Compound 5-FU, 5-Fluorouridine, reference compound] | – | – | – | – | – | – | – | – | – | – | – | – | – | – | – | 18.52 | 0.25 ± 0.05 (≈ 0.953 µM) | – | – | 4.63 ± 0.17 (≈ 17.7 µM) | – |
| CN(C)[C@@H]1C(O)=C(C(N)=O)C(=O)[C@@]2(O)C(O)=C3C(=O)c4c(O)cccc4[C@@](C)(O)[C@H]3C[C@@H]12 [Tetracycline, reference compound] | 2 | 32 (≈ 72 µM) | 16 (≈ 36 µM) | 32 (≈ 72 µM) | 16 (≈ 36 µM) | 1 (≈ 2.25 µM) | 0.5 (≈ 1.13 µM) | 2 | 1 (≈ 2.25 µM) | 0.5 (≈ 1.13 µM) | 2 (≈ 4.5 µM) | 0.5 (≈ 1.13 µM) | 4 | 8 (≈ 18 µM) | 2 (≈ 4.5 µM) | – | – | 2 | 4 | – | MBC/MIC [3]: 2; hemolysis at 1 h, 512 μg/mL [11]: < 10% |
